{"source": "paper PMC8795738", "about": "“The Tarantula Venom Peptide Eo1a Binds to the Domain II S3-S4 Extracellular Loop of Voltage-Gated Sodium Channel NaV1.8 to Enhance Activation” (Frontiers in Pharmacology, 2022)", "key": {"NaV1.8 KO mice": {"system": "NaV1.8 KO mice", "test": "Spontaneous pain after intraplantar injection, NaV1.8 knockout mice", "assay_type": "in vivo, mouse", "settings": "Eo1a intraplantar, significantly reduced vs WT, *p < 0.05 unpaired t-test, mean ± SEM, n = 3–4 mice", "from_the_text": "(§1) Adult male C57BL/6J mice aged 4–8 weeks were sourced from the Animal Resource Centre (Canning Vale, Western Australia). Adult male NaV1.8 knockouts ([Nassar et al., 2004]) (aged 8–11 weeks) and wild-type littermates were housed and tested at University College London. Animals were housed in groups of three or four per cage under 12-h light-dark cycles and were provided with standard rodent chow and water ad libitum. Ethical approval for experiments involving animals was obtained from The University of Queensland animal ethics committee (TRI/IMB/093/17, IMB/PACE/421/18) and the United Kingdom Home Office (project licence PPL 70/7382). All experiments were conducted in accordance with the International Association for the Study of Pain Guidelines for the Use of Animals in Research and the Australian Code of Practice for the Care and Use of Animals for Scientific Purposes, 8th edition (2013).\n(§2) Eo1a (1 μM or 10 μM) was diluted in saline/0.1% BSA and administered by intraplantar injection to the left hind paw of mice in a volume of 40 μl under isoflurane (3%) anaesthesia, and spontaneous pain behaviours (licks, bites, shakes, and lifts of the hind paw) were counted by a blinded investigator for up to 40 min after the injection."}, "NaV1.8": {"biological_target": "NaV1.8 (Homo sapiens, UniProt Q9Y5Y9)", "sequence (Q9Y5Y9 whole entry)": "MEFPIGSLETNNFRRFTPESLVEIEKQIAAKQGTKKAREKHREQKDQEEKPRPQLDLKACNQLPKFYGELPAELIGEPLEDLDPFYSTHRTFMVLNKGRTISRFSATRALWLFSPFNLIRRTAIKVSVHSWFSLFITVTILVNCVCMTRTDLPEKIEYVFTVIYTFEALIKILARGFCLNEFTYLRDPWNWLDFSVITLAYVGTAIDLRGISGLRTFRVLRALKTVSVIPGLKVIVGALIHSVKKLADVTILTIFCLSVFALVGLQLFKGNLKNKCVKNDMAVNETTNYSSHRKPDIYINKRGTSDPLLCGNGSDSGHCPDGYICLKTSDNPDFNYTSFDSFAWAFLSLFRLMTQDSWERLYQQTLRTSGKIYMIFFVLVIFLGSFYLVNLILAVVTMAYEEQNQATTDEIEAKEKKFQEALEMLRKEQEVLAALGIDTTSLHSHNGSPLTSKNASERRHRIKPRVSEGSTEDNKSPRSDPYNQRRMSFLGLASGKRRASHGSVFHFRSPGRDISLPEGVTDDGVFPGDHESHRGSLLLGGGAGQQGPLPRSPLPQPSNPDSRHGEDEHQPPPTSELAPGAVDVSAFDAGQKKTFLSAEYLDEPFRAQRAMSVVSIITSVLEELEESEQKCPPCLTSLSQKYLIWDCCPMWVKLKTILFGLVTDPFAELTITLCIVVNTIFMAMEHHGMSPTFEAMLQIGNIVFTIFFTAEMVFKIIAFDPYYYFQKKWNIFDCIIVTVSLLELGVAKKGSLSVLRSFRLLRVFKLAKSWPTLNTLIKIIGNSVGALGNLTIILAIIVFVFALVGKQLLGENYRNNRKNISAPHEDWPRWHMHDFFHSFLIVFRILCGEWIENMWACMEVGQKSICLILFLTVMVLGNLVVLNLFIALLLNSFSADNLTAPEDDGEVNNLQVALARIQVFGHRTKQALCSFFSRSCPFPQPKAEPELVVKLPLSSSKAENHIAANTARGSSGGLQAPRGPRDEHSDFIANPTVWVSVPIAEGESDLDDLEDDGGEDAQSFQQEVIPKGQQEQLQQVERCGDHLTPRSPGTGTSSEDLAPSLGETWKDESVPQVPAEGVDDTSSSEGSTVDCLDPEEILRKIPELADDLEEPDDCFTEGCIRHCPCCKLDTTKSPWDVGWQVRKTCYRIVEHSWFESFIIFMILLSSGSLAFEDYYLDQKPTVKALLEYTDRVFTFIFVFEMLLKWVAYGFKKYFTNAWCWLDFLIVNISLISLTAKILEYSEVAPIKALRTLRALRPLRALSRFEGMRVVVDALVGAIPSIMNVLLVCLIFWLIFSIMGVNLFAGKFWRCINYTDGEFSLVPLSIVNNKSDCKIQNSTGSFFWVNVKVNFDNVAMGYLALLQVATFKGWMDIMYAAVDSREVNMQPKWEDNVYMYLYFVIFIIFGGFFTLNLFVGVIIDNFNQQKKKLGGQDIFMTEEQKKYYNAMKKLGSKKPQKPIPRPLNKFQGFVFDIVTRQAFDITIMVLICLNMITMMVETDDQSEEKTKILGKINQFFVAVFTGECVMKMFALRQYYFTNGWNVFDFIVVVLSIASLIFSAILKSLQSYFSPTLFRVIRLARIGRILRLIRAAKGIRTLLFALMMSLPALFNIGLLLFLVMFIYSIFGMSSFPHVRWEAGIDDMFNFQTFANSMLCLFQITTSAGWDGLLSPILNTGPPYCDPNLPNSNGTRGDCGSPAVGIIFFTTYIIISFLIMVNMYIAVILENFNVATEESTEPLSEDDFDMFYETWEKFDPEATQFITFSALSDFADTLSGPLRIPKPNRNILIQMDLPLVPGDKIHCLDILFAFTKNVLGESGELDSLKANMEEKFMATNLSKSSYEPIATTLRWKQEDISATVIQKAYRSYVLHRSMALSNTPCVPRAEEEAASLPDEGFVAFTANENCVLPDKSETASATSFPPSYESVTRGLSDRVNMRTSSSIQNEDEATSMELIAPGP", "test": "Concentration-response of NaV1.8 peak current, QPatch whole-cell patch-clamp", "assay_type": "cell-based", "settings": "CHO cells, hNaV1.8/β3, holding −90 mV, 50 ms pulse to +10 mV every 20 s, 5 min incubation, ECS with 0.1% BSA, 1 μM TTX, pH 7.4, four-parameter Hill fit, mean ± SEM, n = 7 cells, read-out: EC50 for increase in NaV1.8 peak current", "procedure": "(§3) Human Embryonic Kidney (HEK) 293 cells stably expressing human NaV1.1 to NaV1.7/β1 (SB Drug Discovery, Glasgow, United Kingdom), Chinese Hamster Ovary (CHO) cells stably expressing human NaV1.8/β3 in a tetracycline-inducible system (ChanTest, Cleveland, OH, United States), and HEK293 cells stably expressing rat transient receptor potential vanilloid 1 (TRPV1) were cultured as previously described ([Yin et al., 2020]). Human KV2.1 and NaV1.7 mutants were transiently transfected into HEK293 cells stably expressing β1/β2 using Lipofectamine 2000 (Thermo Fisher Scientific, Scoresby, VIC, Australia) and used for patch-clamp experiments 48 h after transfection. Cells were grown in an incubator at 37°C with 5% CO2 and passaged every 3–4 d (at 70–80% confluency) using TrypLE Express (Thermo Fisher Scientific).\nAutomated whole-cell patch-clamp recordings were performed with a QPatch-16 automated electrophysiology platform (Sophion Bioscience, Ballerup, Denmark) using single-hole (QPlate 16 with a standard resistance of 2 ± 0.4 MΩ) or multi-hole (QPlate 16X with a standard resistance 0.2 ± 0.04 MΩ, NaV1.8 only) as previously described ([McMahon et al., 2020]). […]"}, "mice": {"system": "mice", "test": "Spontaneous pain behaviours after intraplantar injection in mice", "assay_type": "in vivo, mouse", "settings": "40 μl intraplantar, n = 3–4", "from_the_text": "as §1, §2"}, "NaV1.4": {"system": "NaV1.4", "test": "I-V protocol, whole-cell patch-clamp, NaV1.4", "assay_type": "cell-based, human", "settings": "Eo1a 10 μM", "procedure": "as §3\n(§4) Automated whole-cell patch-clamp recordings were performed with a QPatch-16 automated electrophysiology platform (Sophion Bioscience, Ballerup, Denmark) using single-hole (QPlate 16 with a standard resistance of 2 ± 0.4 MΩ) or multi-hole (QPlate 16X with a standard resistance 0.2 ± 0.04 MΩ, NaV1.8 only) as previously described ([McMahon et al., 2020]).\n(§5) The extracellular solution (ECS) consisted of (in mM) 145 NaCl (replaced with 70 choline chloride for NaV1.4, NaV1.5 and NaV1.7), 4 KCl, 2 CaCl2, 1 MgCl2, 10 HEPES, and 10 glucose, pH to 7.4 with NaOH (adjusted to 305 mOsm/L with sucrose). For NaV recordings the intracellular solution (ICS) consisted of (in mM) 140 CsF, 1 EGTA, 5 CsOH, 10 HEPES, and 10 NaCl, pH to 7.3 with CsOH (adjusted to 320 mOsm/L with sucrose). For KV2.1 recordings the ICS consisted of (in mM) 50 KCl, 60 KF, 10 EGTA, 10 HEPES, 10 NaCl pH to 7.3 with KOH (adjusted to 320 mOsm/L with sucrose). TTX (1 μM) was added to the ECS for NaV1.8 recordings to inhibit background endogenous TTX sensitive current in CHO cells.\n(§6) I-V curves were obtained with a holding potential of −90 mV followed by a series of 500 ms step pulses that ranged from −110 to +80 mV in 5-mV increments (repetition interval 5 s) before and after 5 min incubation with Eo1a (10 μM). Conductance-voltage (G-V) curves were obtained by calculating the conductance (G) at each voltage (V) using equation G = I/(V − V rev ), where V rev is the reversal potential. G-V curves were fitted with a Boltzmann equation. […]\n(§7) The time constant of fast inactivation (τ) was computed by fitting the current decay traces with a single exponential function using QPatch Assay Software 5.6 (Sophion). The time to peak was calculated from pulse onset to peak inward current using QPatch Assay Software 5.6 (Sophion)."}, "WT mice": {"system": "WT mice", "test": "Spontaneous pain after intraplantar injection, WT littermate mice", "assay_type": "in vivo, mouse", "settings": "Eo1a intraplantar, mean ± SEM, n = 3–4 mice", "from_the_text": "as §1, §2"}, "NaV1.5": {"system": "NaV1.5", "test": "I-V protocol, whole-cell patch-clamp, NaV1.5", "assay_type": "cell-based, human", "settings": "Eo1a 10 μM", "procedure": "as §3, §4, §5, §6, §7"}}, "note": "Where a SMILES comes first, the peptide text is derived from it. Bridges are numbered along the chain shown (N, C = ends)."}
{"smiles": "CC[C@H](C)[C@@H]1NC(=O)[C@H](CCCNC(=N)N)NC(=O)[C@@H]2CSSC[C@@H]3NC(=O)CNC(=O)CNC(=O)[C@H](CC(C)C)NC(=O)[C@H](Cc4ccccc4)NC(=O)[C@H](Cc4c[nH]c5ccccc45)NC(=O)[C@H](CCCNC(=N)N)NC(=O)[C@@H](NC(=O)[C@@H](N)CC(=O)O)CSSC[C@H](NC(=O)[C@H](CSSC[C@@H](C(=O)N[C@@H](C)C(=O)N[C@@H](Cc4c[nH]c5ccccc45)C(=O)N[C@@H](CC(=O)O)C(=O)NCC(=O)N[C@H](C(=O)N[C@@H](Cc4ccccc4)C(N)=O)[C@@H](C)O)NC(=O)[C@H](Cc4ccc(O)cc4)NC(=O)[C@H](CCCCN)NC(=O)[C@H]([C@@H](C)CC)NC(=O)[C@H](Cc4ccc(O)cc4)NC(=O)CNC(=O)[C@H](CC(=O)O)NC1=O)NC(=O)[C@H](CC(=O)O)NC(=O)[C@H](CO)NC(=O)[C@H](CC(=O)O)NC(=O)[C@H](CCCCN)NC(=O)[C@H](CO)NC3=O)C(=O)N[C@@H](CCCCN)C(=O)N[C@@H](Cc1c[nH]cn1)C(=O)N[C@@H](CC(C)C)C(=O)N[C@@H](C)C(=O)N2", "note": "[Eo1a] (H-DCRWFLGGCSKDSDCCKHLACRIDGYIKYCAWDGTF-NH2; disulfide 2-16, 9-21, 15-30 (inferred); N-terminus assumed)", "values": [{"measurement": "spontaneous pain (flinches)", "setting": "NaV1.8 KO mice", "value": "216 ± 26", "unit": "Flinches/15 min"}, {"measurement": "EC50", "setting": "NaV1.8", "value": "894 ± 146", "unit": "nM"}, {"measurement": "spontaneous pain behaviours", "setting": "mice; Eo1a 1 μM", "value": "induced spontaneous pain behaviours"}, {"measurement": "spontaneous pain behaviours", "setting": "mice; Eo1a 10 μM, gradually subsided over 30 min", "value": "caused spontaneous pain behaviours that gradually subsided over 30 min"}, {"measurement": "peak current I/I0", "setting": "NaV1.4; 5 min, peak from I-V protocol at any voltage, normalised to buffer control, HEK293 hNaV1.4/β1, mean ± SEM, n = 4–6 cells", "value": "0.68 ± 0.04"}, {"measurement": "V1/2 activation", "setting": "NaV1.4; NaV1.4, 5 min, control −27.6 ± 1.4 mV, mean ± SEM, n = 4–6", "value": "−28.8 ± 1.2", "unit": "mV"}, {"measurement": "V1/2 inactivation (steady-state fast inactivation)", "setting": "NaV1.4; NaV1.4, 5 min, control −65.8 ± 1.3 mV, mean ± SEM, n = 4–6", "value": "−67.6 ± 1.2"}, {"measurement": "effect on inactivation kinetics", "setting": "NaV1.4; NaV1.4, test pulse −20 mV", "value": "minimal effect"}, {"measurement": "spontaneous pain (flinches)", "setting": "WT mice", "value": "392 ± 45", "unit": "Flinches/15 min"}, {"measurement": "peak current I/I0", "setting": "NaV1.5; 5 min, peak from I-V protocol at any voltage, normalised to buffer control, HEK293 hNaV1.5/β1, mean ± SEM, n = 4–6 cells", "value": "0.41 ± 0.05"}, {"measurement": "V1/2 activation", "setting": "NaV1.5; NaV1.5, 5 min, control −30.3 ± 4.0 mV, mean ± SEM, n = 4–6", "value": "−27.1 ± 2.2", "unit": "mV"}, {"measurement": "V1/2 inactivation (steady-state fast inactivation)", "setting": "NaV1.5; NaV1.5, 5 min, control −70.2 ± 0.9 mV, mean ± SEM, n = 4–6", "value": "−75.5 ± 1.0"}, {"measurement": "effect on inactivation kinetics", "setting": "NaV1.5; NaV1.5, test pulse −20 mV", "value": "minimal effect"}]}
